Patent US20100161239A1, “QU[…]” (VICRO BVBA, priority 2003, published 2010)

What was measured:
[1] = tested on: HIV virus strains 1-4; experiment: Measured phenotype (pFR = -log fold resistance), censored values, genotype/phenotype dataset; format: cell-based; details: pFR = -log(FR)
Method: (§1) For the purposes of the invention, the mutations identified should be associated with resistance or susceptibility to drug therapy, for example an antiretroviral drug. The degree to which a particular mutation pattern may affect resistance may be determined by one of skill in the art, for example, using the phenotypic resistance monitoring assay such as, the ANTIVIROGRAM® (Virco, Belgium) (see WO97/27480). In this methodology, resistance is determined with respect to a laboratory reference strain HIVLAI/IIIB. The difference in IC50 (the concentration of drug required to reduce the virus' growth in cell culture by 50%) between the patient sample and the reference viral strain is determined as a quotient. This fold change in IC50 is reported and indicative of the resistance profile of a certain drug. Based on the changes in IC50, cut-off values have been established to distinguish a sample from being sensitive or resistant to a certain drug.
The phenotypes are presented as pFR values, where pFR is equal to −log(FR), where FR denotes the Fold Resistance. Negative pFR values thus denote resistance and positive values denote hyper-susceptibility. For example, a pFR value of −1.0 is equal to 10-fold resistance.
The used dataset consists of a set of matching genotype/phenotype measurements with possible multiple phenotype measurements per genotype. The mutations are defined relative to HXB2 at amino acid level. The phenotypes are presented as pFR values, which is equal to −log(FR), where FR denotes the Fold Resistance.
In this example, the method developed by the inventors to deal with censored values was applied for the drug amprenavir. Firstly, a linear regression model without censored values was calculated, see the values ‘APV_pFR’ for iteration 0 in the Tables 18-21 below. The phenotypic measured value is <−2.083062017 for Virus strain 1, for the first iteration, the value V0 is equal to the measured phenotype value APV_pFR, but the censor is considered as ‘=’. This was followed by iteration nr. 1. Once the values were obtained from iteration 1, the inventors compared the prediction value P, e.g. for Virus strain 1, −2.362076895 with the phenotypic measured value <−2.083062017. For virus strains 1, 2 and 3 below, the measured values have a censor ‘<’. For virus strains 4, the measured value has a censor ‘>’. The scenarios established by the inventors, when the case was ‘<’-censor, and when the case was ‘>’-censor, were applied. New linear regression models were calculated and for the censored values in the linear regression model, either the data-points from the training set were removed, as for virus strains 1, 2 and for virus strain 4 (iteration 2 and 3 only), or those data-points were used instead of the censored phenotypes measurement, as illustrated for virus strain 3 and for virus strain 4 (only iteration 1). The procedure was reiterated until the prediction converged.

[2] = tested on: one HIV-1 sample; experiment: Phenotypic antiviral experiment (as described in WO97/27480), fold change in IC50/EC50 relative to reference wild-type virus; format: cell-based; details: fold change in IC50 or EC50 relative to reference wild-type virus
Method: as §1
The results were expressed in FR, or fold change in IC50 or EC50, relative to reference wild-type virus, which is the drug concentration at which 50% of the enzyme activity is inhibited, and is expressed in μM units. The FR cutoffs values for normal susceptible ranges were 8, 10, and 6, for nevirapine, delavirdine, and efavirenz, respectively.
The phenotypic antiviral experiment was taken as the gold-standard by the inventors. Said phenotypic antiviral experiment was performed as described in WO97/27480.

## CC(C)CN(C[C@@H](O)[C@H](Cc1ccccc1)NC(=O)O[C@H]1CCOC1)S(=O)(=O)c1ccc(N)cc1 [APV, amprenavir]
[1]; Virus strain 1, censor '<'
  APV_pFR (phenotypic measured value): < −2.083
[1]; Virus strain 1, censor '<', listed as amprenavir
  APV_pFR (phenotypic measured value): < −2.083
[1]; Virus strain 2, censor '<'
  APV_pFR (phenotypic measured value): < −1.909
[1]; Virus strain 3, censor '<'
  APV_pFR (phenotypic measured value): <−1.957
[1]; Virus strain 4, censor '>'
  APV_pFR (phenotypic measured value): > 0.5154

## Cc1ccnc2c1NC(=O)c1cccnc1N2C1CC1 [Nevirapine]
[2]
  FR (phenotypic antiviral experiment): >89

## CC(C)Nc1cccnc1N1CCN(C(=O)c2cc3cc(NS(C)(=O)=O)ccc3[nH]2)CC1 [delavirdine]
[2]
  FR (phenotypic antiviral experiment): 3.7

## O=C1Nc2ccc(Cl)cc2[C@@](C#CC2CC2)(C(F)(F)F)O1 [efavirenz]
[2]
  FR (phenotypic antiviral experiment): 17.5
